Results from US20240374626A1, “METHODS OF ENHANCING MILK PRODUCTION IN LACTATING MAMMALIAN SUBJECTS” (priority 2023, published 2024).

Tested on: CK8+ luminal cells
Assay: Contralateral intraductal injection: FACS DNA content analysis of CK8+ luminal cells
Format: in vivo, mouse
Description: Nulliparous analysis was performed using adult (10-12-week-old) female mice. For timed pregnancies and lactation analysis, CD-1 pregnant adult females were obtained from Charles Rivers. Embryos were examined at the time of mammary gland harvesting to confirm pregnancy state. […] Plugged mice were considered to be PD0.5 on the day of the observed plug. All females used in this study were age matched. Mice were anesthetized with isoflurane (VetOne, 501017) Prior to intraductal injections, hair was removed from around the nipples using Nair hair remover. Injections into the duct of the nipple were performed with 33 G needles (Hamilton, 7803-05) and a volume of 40 μl per gland. Right inguinal, abdominal and thoracic glands were injected with doxorubicin (1.5 μg per gland, Cayman Chemical, 15007), nucleosides (40 μl per gland, Millipore-Sigma, ES-008-D) or Mk-1775 (50 μg per gland, Cayman Chemical, 21266), and left glands were injected with PBS or DMSO (Thermo Scientific, BP231) diluted in PBS. Mechanically dissociated inguinal, abdominal, and thoracic mammary fat pads were prepared into cell suspension for flow cytometry or fluorescence-activated cell sorting (FACS). The lymph node was removed from abdominal glands. Glands were chopped using a mechanical tissue chopper and digested for 1 h at 37° C. in digestion media [RPM1 containing 1% FBS, collagenase IA (Sigma, C9891), hyaluronidase (Sigma, H3506) and DNAse I (Worthington, LS002007)]. […] Tissue was further digested using pre-warmed 0.25% Trypsin-EDTA (Thermo Fisher, 25200056), washed, and digested with 5 mg/ml of pre-warmed dispase II (Roche, 4942078001). Red blood cells were lysed using Ammonium Chloride Solution (Stem Cell Technologies, 07850). Cells were washed, resuspended and filter through a 70 μm cell strainer (Falcon, 08-771-2) and processed for downstream applications. For DNA content analysis of the mammary gland CK8^+ epithelial population, mammary gland cells suspension was obtained as described above. Cells were fixed in ice-cold 70% EtOH at a final concentration of 10^6 cells/ml. During fixation, cells were vigorously vortexed for 1 min to avoid the formation of cell aggregates. Cells were washed twice with washing buffer [1×PBS containing 5% FBS and 0.5% tween 20 (Fisher Chemical, BP337500)] and centrifuged at 2,000 rpm for 5 min at 4° C. Cell pellet was incubated for 1 h at room temperature with anti-CK8 (Developmental Studies Hybridoma Lab, TROMA-1), anti-GFP (Thermo Fisher, A01704) or corresponding rat (Thermo-Fisher, 10700) or rabbit (Thermo-Fisher, 10500C) IgG isotype controls. Cells were washed twice and incubated for 1 h at room temperature in darkness with FITC anti-Rat (Thermo Fisher, A24544) or FITC anti-Rabbit (Thermo Fisher, A16030) and APC anti-Rat (Jackson ImmunoResearch, 712-136-153). Cells were washed twice and resuspended in propidium iodide solution [1×PBS containing 25 μg/ml of propidium iodide (Thermo Fisher, P3566) and 100 μg/ml of RNAse (Thermo Fisher, 12091021)]. For DNA content analysis on HC11, cells were washed with 1×DPBS (GIBCO, 14190-250) and harvested using 0.05% Trypsin-EDTA (GIBCO, 25300-062). Cell suspension was washed with 1×DPBS and centrifuged at 1,000 rpm for 5 min at 4° C. Cell pellet was fixed in ice-cold 70% EtOH and then vortexed vigorously to avoid cell aggregates. After fixation, cells were washed with washing buffer [1×PBS (GIBCO, 14190136) supplemented with 5% FBS] and centrifuged at 2,000 rpm for 5 min at 4° C. The pellet was resuspended in propidium iodide solution. Cell suspensions were filtered through a 70 μm cell strainer (Falcon, 08-771-2) and analyzed using a BD LSRII cytometer or a BD FACS Aria II Cell Sorter. Populations were analyzed using FlowJo.

[1] = doxorubicin IDI at PD12.5 vs contralateral DMSO, MGs at PD17.5
[2] = Mk-1775 IDI at PD16.5 vs contralateral DMSO, by LD5

SMILES	decrease in 2C luminal population (in the overall population) [1] [%]	increase in 4C luminal population (in the overall population) [1] [%]	increase in >4C luminal population (in the overall population) [1] [%]	decrease in 4C CK8+ population (in the overall population) (Mk-1775 IDI (50 μg per gland) at PD16.5 vs contralateral DMSO, at LD2) [%]	increase in 2C CK8+ population (in the overall population) (Mk-1775 IDI at PD16.5 vs contralateral DMSO, LD2) [%]	increase in 2C CK8+ population (in the overall population) (Mk-1775 IDI at PD16.5 vs contralateral DMSO, LD5) [%]	decrease in 4C CK8+ population (in the overall population) [2] [%]	decrease in >4C CK8+ population (in the overall population) [2] [%]
COc1cccc2c1C(=O)c1c(O)c3c(c(O)c1C2=O)C[C@@](O)(C(=O)CO)C[C@@H]3O[C@H]1C[C@H](N)[C@H](O)[C@H](C)O1 [doxorubicin]	5.23	14.86	47.1					
C=CCn1c(=O)c2cnc(Nc3ccc(N4CCN(C)CC4)cc3)nc2n1-c1cccc(C(C)(C)O)n1 [Mk-1775]				19.4	7.7	12.4	3.2	16.31
